Source: PubChem BioAssay (NCI)
“And” between values parts separate entries of the source, which are not always exact repeats. Equal entries are not always repeated.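 Five compound concentrations were applied to cells in 96-well plates for 48 hours; endpoints were derived by simple linear interpolation of the resulting dose-response curve. GI50 = concentration required for 50% inhibition of growth. TGI: concentration producing complete growth inhibition.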 Where a SMILES comes first, the peptide text is derived from it. [ ]: non-standard residue; d: D form. The star is where a group is joined. Cbz = O=C(OCc1ccccc1)*; Boc = CC(C)(C)OC(=O)*; Aib = CC(C)(N)C(=O)O; OBn = c1ccc(CO*)cc1; OtBu = CC(C)(C)O*; βAla = NCCC(=O)O

Key:
Experiment in all cases: NCI tumour cell line growth inhibition, 48 h
UO-31 renal = system: UO-31 renal
SK-MEL-5 melanoma = system: SK-MEL-5 melanoma
NCI-H23 lung = system: NCI-H23 lung
HOP-62 NSCLC = system: HOP-62 NSCLC
SF-268 CNS = system: SF-268 CNS
RXF 393 renal = system: RXF 393 renal
CAKI-1 renal = system: CAKI-1 renal
NCI-H460 lung = system: NCI-H460 lung
SNB-75 CNS = system: SNB-75 CNS
SK-MEL-28 melanoma = system: SK-MEL-28 melanoma

Structure (SMILES)	TGI (UO-31 renal) [µM]	TGI (SK-MEL-5 melanoma) [µM]	TGI (NCI-H23 lung) [µM]	TGI (HOP-62 NSCLC) [µM]	TGI (SF-268 CNS)	TGI (RXF 393 renal) [µM]	TGI (CAKI-1 renal) [µM]	TGI (NCI-H460 lung) [µM]	TGI (SNB-75 CNS) [µM]	TGI (SK-MEL-28 melanoma) [µM]	GI50 (SK-MEL-5 melanoma) [µM]	GI50 (NCI-H23 lung) [µM]	GI50 (RXF 393 renal) [µM]	GI50 (SNB-75 CNS) [µM]
CC(C)(C)OC(=O)CC(NC(=O)OC(C)(C)C)C(=O)NC(CCCCNC(=O)OCc1ccccc1)C(=O)NC(C)(C)C(=O)NCCC(=O)OCc1ccccc1 (configuration not stated) (Boc-D(OtBu)K(Cbz)[Aib][βAla]-OBn; configuration not given here)	> 100	> 100	> 100	> 100	> 100 µM	> 100	> 100	> 100	> 100	> 100	–	–	–	–
O=C(Nc1cccc(-c2cn3ccccc3n2)c1)c1ccncc1	> 100	71.4	65	> 100	> 100 µM	> 100	> 100	39	> 100	> 100	–	–	–	–
COc1cc(C2C3=C(COC3=O)OC(C)(C)Oc3cc4c(cc32)OCO4)cc(OC)c1OC (configuration not stated)	5.86	2.33	> 100	> 100	> 31.6 µM	–	> 100	> 100	–	> 100	–	–	–	–
CCOC(=O)c1c(N2CCOCC2)[nH]c(=O)c(C(c2ccc(OC)cc2)c2c(O)c(C(=O)OCC)c(N3CCOCC3)[nH]c2=O)c1O	> 100	> 100	> 100	> 100	> 100 µM	> 100	> 100	> 100	> 100	> 100	–	–	–	–
C/C=C/[C@H]1O[C@@](OC)([C@@H](C)[C@H](O)[C@H](C)[C@H]2OC(=O)/C(OC)=C/C(C)=C/[C@@H](C)[C@@H](O)[C@@H](C)[C@@H](O)[C@H](C)C/C(C)=C/C=C/[C@@H]2OC)CC(OC2CC(O)C(OC(N)=O)C(C)O2)[C@@H]1C (some centres not stated)	< 0.01	< 0.0433	21.7	1.4	22.3 µM	15.7	11.7	4.17	19.5	14.2	–	–	–	–
NC(N)=N/N=C/c1nc2sccn2c1[N+](=O)[O-]	> 100	33.9	36.7	> 100	> 100 µM	36.9	> 100	40.9	39.5	> 100	–	–	–	–
O=c1[nH]nc(Cc2ccc(Cl)cc2)n1O	> 100	> 100	> 100	> 100	> 100 µM	> 100	> 100	> 100	–	> 100	–	–	–	–
COc1cc(/C=C2/SC(c3ccccc3)N(c3cccc([N+](=O)[O-])c3)C2=O)cc(OC)c1OC (configuration not stated)	> 100	> 100	> 100	> 100	> 100 µM	> 100	> 100	> 100	–	> 100	–	–	–	–
Cc1ccc2c(c1)OC1Nc3ccccc3C1=C2O (configuration not stated)	61.6	34	74.6	> 100	> 100 µM	72.4	97.5	64.3	> 100	> 100	–	–	–	–
COC1/C=C/C(C)C(C(C)C(OC)C(C)CCC(=O)C(C)C(CCC(=O)O)OC)OC(=O)/C=C/C=C(\C)CC(OC)CC2=CC(=O)O[C@@H](C(C)C(OC)CC(OC)/C=C/C(C)C(OC)C1)[C@H]2O (some centres not stated)	–	2.88	> 5	> 5	> 2.47 µM	1.49	0.934	> 5	2.22	> 3.29	–	–	–	–
COC(=O)C(COC(=O)/C=C/c1ccc(OC(C)=O)c(OC(C)=O)c1)OC(=O)/C=C/c1ccc(OC(C)=O)c(OC(C)=O)c1 (configuration not stated)	21.8	28.3	71.8	58.2	64.2 µM	25.8	43.1	57.2	–	30.9	–	–	–	–
CC(C)(C)N1Cc2ccccc2/C(=C/Sc2ccccc2)C1=O	24.8	20.2	24.2	33.8	20.2 µM	34	30.7	30	31.9	33.7	–	–	–	–
CC1(C)[C@@H]2C[C@H]1c1cnc(-c3ccccn3)cc1C2[C@@H]1c2cc(-c3ccccn3)ncc2[C@@H]2C[C@H]1C2(C)C (some centres not stated)	85.9	> 100	> 100	> 100	> 100 µM	> 100	> 100	> 100	> 100	> 100	–	–	–	–
COc1ccc(NC2Oc3cc4c(cc3C(c3cc(OC)c(O)c(OC)c3)C2C)OCO4)cc1 (configuration not stated)	31.3	4.34	> 100	–	> 100 µM	61.8	30	23.3	15	37.3	–	–	–	–
Nc1nc2c(ncn2C2C=CC(CO)O2)c(=O)[nH]1 (configuration not stated)	> 100	> 100	> 100	> 100	–	> 100	> 100	> 100	> 100	> 100	–	–	–	–
COC(=O)c1cncc2c1CC1C3(C(=O)OC)C=NC(C4C(CO)=CCC43)C21C (configuration not stated)	> 100	> 100	> 100	> 100	> 100 µM	> 100	> 100	> 100	> 100	> 100	–	–	–	–
Cc1ccc(O)c(C2=NNC(c3cccc(Br)c3)C2)c1 (configuration not stated)	> 100	> 100	> 100	> 100	> 100 µM	> 100	> 100	> 100	–	–	–	–	–	–
O=C(O)c1ccc(Nc2nc3cc(C(F)(F)F)ccc3nc2C(=O)O)cc1	> 100	> 100	> 100	> 100	> 100 µM	> 100	> 100	> 100	> 100	> 100	–	–	–	–
COc1ccc(OC)c2cc(Cc3ccc(N(C)C)cc3)c(=O)c(Cc3ccc(N(C)C)cc3)cc12	> 100	> 100	> 100	> 100	> 100 µM	> 100	> 100	> 100	> 100	> 100	–	–	–	–
CSc1ncc2c(n1)-c1ccccc1OC2N1CCCC1 (configuration not stated)	> 100	> 100	> 100	–	> 100 µM	> 100	83.4	> 100	> 100	–	–	–	–	–
CCOC(=O)c1sc2c(c1OC(=O)c1ccccc1)c(=O)n(-c1ccccc1)c(=S)n2-c1ccccc1	–	49.7	48.9	54.4	> 100 µM	> 100	> 100	41.5	–	> 100	–	–	–	–
N#CC1=CNc2sccc2S1(=O)=O	> 100	> 100	> 100	> 100	> 100 µM	–	> 100	> 100	> 100	> 100	–	–	–	–

Structure (SMILES)	TGI (UO-31 renal) [µM]	TGI (SK-MEL-5 melanoma) [µM]	TGI (NCI-H23 lung) [µM]	TGI (HOP-62 NSCLC) [µM]	TGI (SF-268 CNS)	TGI (RXF 393 renal) [µM]	TGI (CAKI-1 renal) [µM]	TGI (NCI-H460 lung) [µM]	TGI (SNB-75 CNS) [µM]	TGI (SK-MEL-28 melanoma) [µM]	GI50 (SK-MEL-5 melanoma) [µM]	GI50 (NCI-H23 lung) [µM]	GI50 (RXF 393 renal) [µM]	GI50 (SNB-75 CNS) [µM]
O=C(O)c1ccccc1/C=N\NC1=NCCCCN1	> 100	> 100	> 100	> 100	> 100 µM	–	> 100	> 100	> 100	–	–	–	–	–
COC(=O)C1(C(=O)OC)N=C(C)OC1C(C)C (configuration not stated)	> 100	> 100	> 100	> 100	–	> 100	> 100	> 100	> 100	> 100	–	–	–	–
CCCCCCCCCCCCCCCCNc1nc(=O)n(C2CC(O)C(CO)O2)cc1F (configuration not stated)	18.8	48.1	18	20	22.3 µM	28.4	23.3	27.3	–	28.4	–	–	–	–
OCCN=C1Nc2ccc(Cl)cc2C(=S)N2CSC[C@@H]12	> 100	> 100	> 100	> 100	> 100 µM	> 100	> 100	> 100	–	> 100	–	–	–	–
CCOC(=O)c1cn(-c2ccc(Cl)cc2)c(=O)n2c1nc1ccccc12	> 100	> 100	> 100	> 100	–	> 100	> 100	> 100	> 100	> 100	–	–	–	–
Cc1ccc(S(=O)(=O)N2CCN(CCN(C)CCN3CCN(S(=O)(=O)c4ccc(C)cc4)CC3)CC2)cc1	26.8	32.3	44.8	33	40.1 µM	27.8	40.5	32.2	–	31.4	–	–	–	–
O=C(N=Nc1ccccc1Br)NNc1ccccc1Br	> 100	> 100	> 100	> 100	> 100 µM	–	> 100	> 100	> 100	> 100	–	–	–	–
COc1ccc2c(c1)CCc1c-2n(CCN(C)C)c2ccc(OC)cc12	47.8	> 100	50.2	43.1	> 100 µM	–	> 100	> 100	76.5	33.6	–	–	–	–
COc1ccc(CNc2nc(NCc3ccc(OC)cc3)nc(N3CCOCC3)n2)cc1	> 100	24.4	28.7	> 100	–	> 100	6.9	> 100	> 100	> 100	–	–	–	–
CC[N+](CC)=c1ccc2nc3c(cc(N)c4ccccc43)oc-2c1	–	0.27	0.358	–	–	0.319	–	–	1.88	–	0.125	0.125	0.173	0.61
N#Cc1c2c(c(N3CCOCC3)n3c1nc1ccccc13)CCCC2	35.4	37	47.3	–	> 100 µM	–	37.9	56.4	–	49.3	–	–	–	–
O=C(c1ccco1)N(C(=S)OCc1ccccn1)c1ccccc1	> 100	> 100	> 100	> 100	> 100 µM	> 100	> 100	–	–	> 100	–	–	–	–
CSc1nncc(-c2cc3c(c(SC)n2)CCC3)n1	> 100	> 100	> 100	> 100	> 100 µM	> 100	> 100	–	> 100	> 100	–	–	–	–
O=C(/C=C/c1ccc([N+](=O)[O-])cc1)c1nc2ccccc2[nH]1	> 100	> 100	–	> 100	> 100 µM	> 100	> 100	> 100	> 100	> 100	–	–	–	–
COS(=O)c1cc(Cl)cc(Cl)c1O (configuration not stated)	> 100	–	> 100	> 100	> 100 µM	> 100	–	> 100	> 100	> 100	–	–	–	–
CCOC(=O)C(O)(NC(C)=O)C(F)(F)F (configuration not stated)	> 100	> 100	> 100	> 100	> 100 µM	> 100	> 100	–	> 100	> 100	–	–	–	–
O=C(NNC(=S)Nc1ccccc1)c1csc(NC(=S)NC2CCCCC2)n1	79.6	38.8	> 100	> 100	> 100 µM	–	> 100	–	> 100	–	–	–	–	–
OC1OC(c2ccco2)C(F)(F)C(F)(F)C1(F)F (configuration not stated)	> 100	89.1	–	> 100	> 100 µM	> 100	–	> 100	–	> 100	–	–	–	–
O=C1OS2(OCc3cccc4cccc2c34)c2ccccc21 (configuration not stated)	> 100	> 100	> 100	> 100	> 100 µM	–	> 100	> 100	> 100	> 100	–	–	–	–
CSC1SCC2C(=O)N(C)C3(CC3C)C(=O)OCC(NC(=O)c3nc4ccccc4cc3O)C(=O)NC(C)C(=O)N(C)C1C(=O)N(C)C1(CC1C)C(=O)OCC(NC(=O)c1nc3ccccc3cc1O)C(=O)NC(C)C(=O)N2C (configuration not stated)	0.0093	–	< 0.0001	–	0.00684 µM and 0.0159 µM	< 0.0001	0.0135	0.875	< 0.0001	< 0.0001	–	–	–	–
COc1ccc(-c2c(C#N)c(-c3ccccc3)n(NS(=O)(=O)c3ccccc3)c(=O)c2C#N)cc1	–	> 100	–	> 100	> 100 µM	> 100	> 100	> 100	> 100	> 100	–	–	–	–
